Data from BindingDB's records for doi:10.7270/Q2ZG6QNM (University of Pittsburgh, 2008).

Molecular target: T1, Serine/threonine-protein kinase D1 (Homo sapiens, UniProt Q15139)
T1 sequence (Q15139 whole entry): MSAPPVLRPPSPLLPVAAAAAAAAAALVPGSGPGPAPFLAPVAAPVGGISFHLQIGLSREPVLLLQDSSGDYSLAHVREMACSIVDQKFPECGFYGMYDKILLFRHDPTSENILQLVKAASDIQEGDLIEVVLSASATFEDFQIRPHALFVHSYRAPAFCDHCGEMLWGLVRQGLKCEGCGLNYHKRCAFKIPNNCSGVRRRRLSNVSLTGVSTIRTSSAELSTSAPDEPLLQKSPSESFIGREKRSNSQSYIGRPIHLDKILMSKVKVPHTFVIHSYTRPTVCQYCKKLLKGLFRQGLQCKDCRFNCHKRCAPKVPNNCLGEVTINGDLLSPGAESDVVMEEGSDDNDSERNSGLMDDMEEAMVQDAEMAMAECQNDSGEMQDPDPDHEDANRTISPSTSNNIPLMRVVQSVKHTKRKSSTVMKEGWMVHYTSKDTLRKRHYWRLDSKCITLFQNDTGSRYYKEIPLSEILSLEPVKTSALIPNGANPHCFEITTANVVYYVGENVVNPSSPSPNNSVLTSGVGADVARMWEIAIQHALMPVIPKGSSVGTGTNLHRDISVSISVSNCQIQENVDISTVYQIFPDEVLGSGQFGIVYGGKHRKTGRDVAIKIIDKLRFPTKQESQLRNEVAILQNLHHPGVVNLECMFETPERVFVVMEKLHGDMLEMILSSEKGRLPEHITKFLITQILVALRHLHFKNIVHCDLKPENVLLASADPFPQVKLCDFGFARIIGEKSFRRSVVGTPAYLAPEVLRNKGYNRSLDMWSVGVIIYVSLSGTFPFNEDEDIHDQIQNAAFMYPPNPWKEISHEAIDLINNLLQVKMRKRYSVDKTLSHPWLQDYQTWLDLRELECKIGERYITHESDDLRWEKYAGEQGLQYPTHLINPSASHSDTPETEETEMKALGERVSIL
Assay: fluorescence polarization artefacts, biochemical, 57K campaign, artefact control, dose response (AID 1342)

| SMILES | IC50 [µM] |
| --- | --- |
| CSc1ccccc1C(=O)NCc1ccc(F)cc1 | > 50 |
| O=C(CSc1ccc2nnc(-c3cccnc3)n2n1)c1ccccc1 [1-phenyl-2-[[3-(3-pyridinyl)-[1,2,4]triazolo[4,3-b]pyridazin-6-yl]thio]ethanone] | > 50 |
| CCOC(=O)c1sc(=NC(=O)CCS(=O)(=O)c2ccccc2)n(C)c1C [2-[3-(benzenesulfonyl)-1-oxopropyl]imino-3,4-dimethyl-5-thiazolecarboxylic acid ethyl ester] | > 50 |
| CCCc1cc(=O)[nH]c(SCCCCN2C(=O)c3ccccc3C2=O)n1 [2-[4-[(4-oxidanylidene-6-propyl-1H-pyrimidin-2-yl)sulfanyl]butyl]isoindole-1,3-dione] | > 50 |
| Cc1c(C#N)c(N)nc(Cl)c1C#N [2-amino-6-chloro-4-methyl-3,5-pyridinedicarbonitrile] | > 50 |
| CC(N=Nc1ncc(Cl)cc1Cl)c1ccccn1 (stereo not drawn) [3,5-dichloro-N-(1-pyridin-2-ylethylideneamino)pyridin-2-amine] | 16.7 |
| O=C1CSCN1c1cc(Cl)ccc1Cl [3-(2,5-dichlorophenyl)-1,3-thiazolan-4-one] | > 50 |
| O=C(O)c1cc(C(=O)C2CCCCC2)c[nH]1 [4-(cyclohexylcarbonyl)-1H-pyrrole-2-carboxylic acid] | > 50 |
| CC1Cc2ccccc2N1c1ncnc(N)c1[N+](=O)[O-] (stereo not drawn) [6-(2-methyl-2,3-dihydro-1H-indol-1-yl)-5-nitro-4-pyrimidinamine] | > 50 |
| O=[N+]([O-])c1ccc(Nc2c3ccccc3nc3ccccc23)cc1 [MLS000723809] | > 50 |
| COc1ccc(Cn2c(=O)[nH]c3cc(C(=O)NC4CCCC4)ccc3c2=O)cc1 [MLS000730065] | > 50 |
| Cc1cc(NC(=O)CCC(=O)N(Cc2ccco2)C(C(=O)NCC2CCCO2)c2ccncc2)no1 (stereo not drawn) [N'-(furan-2-ylmethyl)-N-(5-methyl-1,2-oxazol-3-yl)-N'-[2-oxidanylidene-2-(oxolan-2-ylmethylamino)-1-pyridin-4-yl-ethyl]butanediamide] | > 50 |
| O=C(CSc1ccncc1)Nc1ccc2ccccc2c1 [N-naphthalen-2-yl-2-pyridin-4-ylsulfanylacetamide] | > 50 |
| O=C(NNC1=Nc2cccc3cccc1c23)c1ccc(Br)cc1 [SMR000260645] | > 50 |
| O=C(Nc1ccccc1C(=O)N1CCCC1)C1COc2ccccc2O1 (stereo not drawn) [SMR000287780] | > 50 |
| COC(=O)c1c(NC(=O)C2C3CCC(C3)C2C(=O)O)sc2c1CCCCC2 (stereo not drawn) [SMR000298221] | > 50 |
| COc1ccc(CNC(=O)C2Cc3ccccc3CN2C(=O)c2ccco2)cc1 (stereo not drawn) [SMR000343177] | > 50 |
| Cn1cccc1C(=O)NC(=O)COC(=O)c1cc(S(=O)(=O)N2CCCCC2)ccc1Cl [[2-[(1-methylpyrrol-2-yl)carbonylamino]-2-oxidanylidene-ethyl] 2-chloranyl-5-piperidin-1-ylsulfonyl-benzoate] | > 50 |
